Each structure is given as a SMILES string. Where two headings read alike, the source gives them in different places.

For assay [1], the target named is T1, human EphB2-His ectodomain - human EphrinB2-Fc ectodomain (EphB2-EphrinB2 tetramer) (Homo sapiens, UniProt P29323+P52799). As to the kind of experiment: biochemical.
Target sequence in this assay (P52799 28-229): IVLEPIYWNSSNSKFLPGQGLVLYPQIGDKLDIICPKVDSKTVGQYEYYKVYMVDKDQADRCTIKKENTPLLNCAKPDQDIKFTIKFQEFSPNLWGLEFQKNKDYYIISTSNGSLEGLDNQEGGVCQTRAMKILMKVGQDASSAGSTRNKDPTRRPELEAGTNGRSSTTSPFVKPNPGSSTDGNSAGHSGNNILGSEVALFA
Target sequence in this assay (P29323 19-543): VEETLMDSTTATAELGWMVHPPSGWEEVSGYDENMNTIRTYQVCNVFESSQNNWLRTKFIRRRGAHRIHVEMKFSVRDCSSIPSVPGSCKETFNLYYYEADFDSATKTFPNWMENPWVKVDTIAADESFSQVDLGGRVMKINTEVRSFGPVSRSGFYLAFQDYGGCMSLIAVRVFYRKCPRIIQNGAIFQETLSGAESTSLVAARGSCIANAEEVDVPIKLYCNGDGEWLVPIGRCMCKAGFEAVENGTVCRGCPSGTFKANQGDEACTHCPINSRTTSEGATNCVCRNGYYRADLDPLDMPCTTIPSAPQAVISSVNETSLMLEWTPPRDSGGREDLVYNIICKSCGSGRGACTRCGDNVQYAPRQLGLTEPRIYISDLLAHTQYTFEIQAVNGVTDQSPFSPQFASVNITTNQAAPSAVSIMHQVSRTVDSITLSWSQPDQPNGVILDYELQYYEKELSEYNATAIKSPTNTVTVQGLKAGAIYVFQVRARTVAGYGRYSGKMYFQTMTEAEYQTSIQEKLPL
Assay [2] concerns the target T1, human EphB2-His ectodomain - human EphrinB2-Fc ectodomain (EphB2-EphrinB2 tetramer). In words: biochemical. This is another data set of the same source.
Target sequence in this assay (P52799 28-229): as the sequence (P52799 28-229) above
Target sequence in this assay (P29323 19-543): as the sequence (P29323 19-543) above
The target of assay [3] is EphB1-EphrinB2 (Homo sapiens, UniProt P52799+P54762). As to the kind of experiment: biolayer interferometry, AUC. In kind it is binding. Particulars: read-out: % inhibition at 3.2 μM. Background: BLI is a label-free optical method that tracks binding on a fibre tip over time.
In assay [4] the target is T1, human EphB2-His ectodomain - human EphrinB2-Fc ectodomain (EphB2-EphrinB2 tetramer). As to the kind of experiment: biolayer interferometry, AUC. The assay is classed as binding. The note with it: read-out: % inhibition at 3.2 μM.
Target sequence in this assay (P29323 19-543): as above
Target sequence in this assay (P52799 28-229): as the sequence (P52799 28-229) above
Assay [5] concerns the target human EphB4-His ectodomain - human EphrinB2-Fc ectodomain (EphB4-EphrinB2) (Homo sapiens, UniProt P52799+P54760). In words: biolayer interferometry, AUC. The note with it: read-out: % inhibition at 3.2 μM. In kind it is binding.
Assay [6] deals with T1, human EphB2-His ectodomain - human EphrinB2-Fc ectodomain (EphB2-EphrinB2 tetramer). In words: biochemical. Particulars: EphrinB2-EphB2 IC50 (Absolute, µM).
Target sequence in this assay (P52799 28-229): as above
Target sequence in this assay (P29323 19-543): as the sequence (P29323 19-543) above
In assay [7] the target is EphrinB2-EphB1 (immobilized human EphrinB2, 25 nM soluble human EphB1) (Homo sapiens, UniProt P52799+P54762). As to the kind of experiment: biochemical. Particulars: read-out: % Inhibited (AUC) Association.
The target in assay [8] is T1, human EphB2-His ectodomain - human EphrinB2-Fc ectodomain (EphB2-EphrinB2 tetramer). In words: biolayer interferometry, AUC of concentration series. In kind it is binding.
Target sequence in this assay (P29323 19-543): as above
Target sequence in this assay (P52799 28-229): as the sequence (P52799 28-229) above
For assay [9], the target named is EphrinB2 of mouse pancreatic stellate cells stimulated with mouse EphB2-Fc-His (Mus musculus, UniProt P52800+P54763). As to the kind of experiment: % pEphrinB2 by IP and immunoblot. In kind it is cell-based. A general note: Immunoblotting shows a protein as a band on a membrane.
For assay [10], the target named is T1, human EphB2-His ectodomain - human EphrinB2-Fc ectodomain (EphB2-EphrinB2 tetramer). In words: biochemical. The source holds these as a separate data set.
Target sequence in this assay (P29323 19-543): as the sequence (P29323 19-543) above
Target sequence in this assay (P52799 28-229): as the sequence (P52799 28-229) above
Assay [11] shares this target. As to the kind of experiment: biochemical. The source holds these as a separate data set.
Target sequence in this assay (P52799 28-229): as above
Target sequence in this assay (P29323 19-543): as the sequence (P29323 19-543) above
Assay [12] shares this target. In words: biochemical. This is another data set of the same source.
Target sequence in this assay (P52799 28-229): as the sequence (P52799 28-229) above
Target sequence in this assay (P29323 19-543): as the sequence (P29323 19-543) above
Assay [13] shares this target. As to the kind of experiment: biochemical. The source holds these as a separate data set.
Target sequence in this assay (P52799 28-229): as the sequence (P52799 28-229) above
Target sequence in this assay (P29323 19-543): as the sequence (P29323 19-543) above

EphrinB2-EphB1 (immobilized human EphrinB2, 25 nM soluble human EphB1), sequence (P52799 whole entry, the tested form may be a part): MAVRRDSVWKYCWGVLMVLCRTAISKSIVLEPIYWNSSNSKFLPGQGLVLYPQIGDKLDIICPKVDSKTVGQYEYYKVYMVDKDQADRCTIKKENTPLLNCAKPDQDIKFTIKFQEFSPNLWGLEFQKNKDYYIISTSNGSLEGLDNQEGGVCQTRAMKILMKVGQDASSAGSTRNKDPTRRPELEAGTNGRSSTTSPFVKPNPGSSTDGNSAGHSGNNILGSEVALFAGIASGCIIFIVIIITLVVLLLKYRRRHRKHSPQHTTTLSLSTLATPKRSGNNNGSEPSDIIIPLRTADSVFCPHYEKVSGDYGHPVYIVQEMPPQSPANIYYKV
EphrinB2-EphB1 (immobilized human EphrinB2, 25 nM soluble human EphB1), sequence (P54762 whole entry, the tested form may be a part): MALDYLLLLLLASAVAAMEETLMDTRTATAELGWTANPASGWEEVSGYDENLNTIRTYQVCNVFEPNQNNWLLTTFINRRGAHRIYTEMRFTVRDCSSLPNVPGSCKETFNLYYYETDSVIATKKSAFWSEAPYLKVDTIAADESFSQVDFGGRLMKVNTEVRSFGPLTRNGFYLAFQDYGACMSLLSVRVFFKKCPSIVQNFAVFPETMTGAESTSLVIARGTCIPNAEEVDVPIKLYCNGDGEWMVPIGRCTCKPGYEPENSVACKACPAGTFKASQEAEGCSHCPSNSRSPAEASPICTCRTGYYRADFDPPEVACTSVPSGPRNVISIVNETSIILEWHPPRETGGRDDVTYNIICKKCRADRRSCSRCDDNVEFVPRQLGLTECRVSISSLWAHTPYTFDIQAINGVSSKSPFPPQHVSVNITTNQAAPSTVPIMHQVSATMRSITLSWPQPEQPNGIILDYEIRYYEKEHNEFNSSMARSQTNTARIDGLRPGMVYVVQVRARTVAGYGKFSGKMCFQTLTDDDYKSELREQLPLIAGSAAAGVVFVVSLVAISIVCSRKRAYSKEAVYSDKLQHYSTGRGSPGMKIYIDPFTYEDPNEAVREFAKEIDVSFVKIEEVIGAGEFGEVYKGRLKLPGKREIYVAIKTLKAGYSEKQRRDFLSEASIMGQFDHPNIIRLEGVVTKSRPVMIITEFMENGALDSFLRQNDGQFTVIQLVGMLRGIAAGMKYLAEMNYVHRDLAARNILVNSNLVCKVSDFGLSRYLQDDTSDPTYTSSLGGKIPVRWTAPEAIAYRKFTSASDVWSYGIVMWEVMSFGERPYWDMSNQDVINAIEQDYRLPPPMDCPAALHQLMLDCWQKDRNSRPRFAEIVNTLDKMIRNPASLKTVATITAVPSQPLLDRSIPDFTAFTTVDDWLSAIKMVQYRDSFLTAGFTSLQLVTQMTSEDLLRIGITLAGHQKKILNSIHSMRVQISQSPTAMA
EphB1-EphrinB2, sequence (P54762 18-540 limits assumed): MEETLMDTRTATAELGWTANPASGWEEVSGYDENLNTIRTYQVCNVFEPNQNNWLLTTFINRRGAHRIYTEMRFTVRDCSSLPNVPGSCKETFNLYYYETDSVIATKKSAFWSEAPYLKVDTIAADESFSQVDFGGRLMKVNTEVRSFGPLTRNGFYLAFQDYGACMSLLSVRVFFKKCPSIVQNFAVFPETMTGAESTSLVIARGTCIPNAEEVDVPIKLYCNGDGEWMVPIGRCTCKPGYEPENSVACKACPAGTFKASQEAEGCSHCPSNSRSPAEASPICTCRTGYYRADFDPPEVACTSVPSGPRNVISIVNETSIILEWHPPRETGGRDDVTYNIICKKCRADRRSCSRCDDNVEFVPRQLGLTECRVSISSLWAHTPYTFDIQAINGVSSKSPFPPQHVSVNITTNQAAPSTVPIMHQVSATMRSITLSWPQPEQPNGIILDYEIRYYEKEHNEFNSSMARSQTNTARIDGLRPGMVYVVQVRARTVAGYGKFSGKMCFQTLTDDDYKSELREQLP
EphB1-EphrinB2, sequence (P52799 28-229 limits assumed): as the sequence (P52799 28-229) above
human EphB4-His ectodomain - human EphrinB2-Fc ectodomain (EphB4-EphrinB2), sequence (P54760 16-539): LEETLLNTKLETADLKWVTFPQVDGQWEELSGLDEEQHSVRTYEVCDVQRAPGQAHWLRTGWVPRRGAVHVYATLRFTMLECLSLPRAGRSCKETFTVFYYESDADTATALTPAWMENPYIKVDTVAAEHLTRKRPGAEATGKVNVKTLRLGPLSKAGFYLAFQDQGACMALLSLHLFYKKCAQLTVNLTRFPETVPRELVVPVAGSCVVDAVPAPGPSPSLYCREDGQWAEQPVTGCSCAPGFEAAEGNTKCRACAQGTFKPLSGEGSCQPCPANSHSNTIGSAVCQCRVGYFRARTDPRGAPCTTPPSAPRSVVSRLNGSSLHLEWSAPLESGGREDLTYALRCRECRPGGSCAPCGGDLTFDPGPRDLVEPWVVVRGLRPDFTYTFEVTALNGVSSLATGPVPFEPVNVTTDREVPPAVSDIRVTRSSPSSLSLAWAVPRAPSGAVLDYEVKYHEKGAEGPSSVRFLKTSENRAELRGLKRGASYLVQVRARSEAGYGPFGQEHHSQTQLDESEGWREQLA
human EphB4-His ectodomain - human EphrinB2-Fc ectodomain (EphB4-EphrinB2), sequence (P52799 28-229): as the sequence (P52799 28-229) above

Broadly, the IC50 is the point on the concentration scale where inhibition reaches its midpoint. A higher IC50 goes with a need for much substance. In the case of `O=C(Oc1c(Cl)cc(Cl)c2cccnc12)c1ccc([N+](=O)[O-])cc1` [4a, 5,7-dichloro-8-quinolinyl 4-nitrobenzoate], the half-inhibitory concentration (IC50) is 38 µM in assay [1] and approximately 31.6 µM in [2].
`Oc1c(I)cc(CN2CCOCC2)c2cccnc12` [A20-I]: the inhibition at 3.2 µM in [3] was determined as 36.6%; in assay [4] it was 61.8%; in assay [5], 13.9%; in [7], 32.6%. Further, the IC50 in assay [6] was more than 1.6 µM.
As usually defined, the Ki is a measure of affinity in units of concentration, obtained from inhibition or displacement. Regarding `Oc1c(Br)cc(CN2CCN(c3ccc(Br)cc3)CC2)c2cccnc12` [BQPB4], the affinity in [8] corresponds to a Ki of 0.00288 µM. Also, the IC50 in assay [9] is 1.6 µM; in assay [10] it was 0.28 µM. Also, the inhibition at 3.2 µM in assay [7] is 39.1%.
Take `CCOc1cc(C(Nc2cc(C)ccn2)c2ccc3cccnc3c2O)ccc1O` (centres unmarked) [SW039498]: the half-maximal inhibitory concentration (IC50) in assay [11] and in assay [12] was more than 3.2 µM throughout.
On to `Oc1ccc(CSc2ccccc2)c2cccnc12` [SW160569, G15], for which the inhibition constant (Ki) in assay [13] was 0.00373 µM.
